Laboratory results from patent publication US20250195521A1 (Revolution Medicines, Inc., priority 2020, published 2025).
Like-named read-outs stand apart in the source and are kept apart here.

System: NCI-H358 (K-Ras G12C)
Assay: CellTiter-Glo cell viability assay, NCI-H358
Type: cell-based, human
Method: Determination of Cell Viability in RAS Mutant Cancer Cell Lines Protocol: CellTiter-Glo® Cell Viability Assay
Note—The following protocol describes a procedure for monitoring cell viability of K-Ras mutant cancer cell lines in response to a compound of the invention. Other RAS isoforms may be employed, though the number of cells to be seeded will vary based on cell line used.
Test compounds (132.5 nL) were directly dispensed into the assay plates containing cells. […] On day 5, assay plates and their contents were equilibrated to room temperature for approximately 30 minutes. […] Luminescence was measured using the PerkinElmer Enspire. Data were normalized by the following: (Sample signal/Avg. DMSO)*100. The data were fit using a four-parameter logistic fit.

[1] = Homo sapiens, NCI-H358, 120 h, 5-day treatment, read-out: H358 Cell Viability assay data (K-Ras G12C, IC50)

Row | IC50 [1] [µM] | SMILES | other results
1 | < 0.01 | C=CC(=O)N1CC[C@H](C(=O)N(C)[C@H](C(=O)N[C@H]2Cc3cc(O)cc(c3)-c3ccc4c(c3)c(c(-c3cccnc3[C@@H]3CCCO3)n4CC)CC(C)(C)COC(=O)[C@@H]3CCCN(N3)C2=O)C(C)C)C1 [Compound A281] | 
2 | > 10 | C=CC(=O)N1CC[C@H](C(=O)N(C)[C@H](C(=O)N[C@H]2Cc3nc(ns3)-c3ccc4c(c3)c(c(-c3cncnc3)n4CC)CC(C)(C)COC(=O)[C@@H]3CCCN(N3)C2=O)C(C)C)C1 [Compound A285] | 
3 | > 10 | C=CC(=O)N1CC[C@H](C(=O)N(C)[C@H](C(=O)N[C@H]2Cc3nc(cs3)-c3ccc4c(c3)c(c(-c3cccnc3[C@H](C)OC)n4CC)CC(C)(C)CN(C)C[C@@H]3CCCN(N3)C2=O)C(C)C)C1 [Compound A287] | 
4 | > 10 | C=CC(=O)N1CC[C@H](C(=O)N(C)[C@H](C(=O)N[C@H]2Cc3nc(cs3)-c3ccc4c(c3)c(c(-c3cccnc3[C@H](C)OC)n4CC)CC(C)(C)CCC[C@@H]3CCCN(N3)C2=O)C(C)C)C1 [Compound A288] | 
5 | > 10 | CO[C@@H](C)c1ncccc1-c1nc2ccc3cn2c1CC(C)(C)COC(=O)[C@@H]1CCCN(N1)C(=O)[C@@H](NC(=O)[C@H](C(C)C)N(C)C(=O)[C@H]1CCN(C(=O)C#CC(C)(C)N(C)C)C1)Cc1cccc-3c1 [Compound A311] | 
6 | 0.01 to 0.1 | CCn1c(-c2cccnc2[C@H](C)OC)c2c3cc(ccc31)-c1csc(n1)C[C@H](NC(=O)C1(F)COC1)C(=O)N1CCC[C@H](N1)C(=O)OCC(C)(C)C2 [Compound A320] | 
7 | 0.1 to 1 | C=CC(=O)N1CC[C@H](C(=O)N(C)[C@H](C(=O)N[C@H]2Cc3nc(cs3)-c3ccc4c(n3)c(c(-c3cccnc3[C@H](C)OC)n4CC)CC(C)(C)COC(=O)[C@@H]3CCCN(N3)C2=O)C(C)C)C1 [Compound A347, (2S)—N-[(7S,13S)-21-ethyl-20-{2-[(1S)-1-methoxyethyl]pyridin-3-yl}-17,17-dimethyl-8,14-dioxo-15-oxa-4-thia-9,21,25,27,28-pentaazapentacyclo[17.5.2.1^{2,5}0.1^{9,13}0.0^{22,26}]octacosa-1 (25),2,5 (28), 19,22 (26),23-hexaen-7-yl]-3-methyl-2-{N-methyl-1-[(3S)-1-(prop-2-enoyl)pyrrolidin-3-yl]formamido}butanamide] | 
8 | < 0.01 | CCn1c(-c2cccnc2[C@H](C)OC)c2c3cc(ccc31)-c1csc(n1)C[C@H](NC(=O)[C@H](C(C)C)N(C)C(=O)N1CC(N(C)C(=O)C#CC(C)(C)N3CCC3)C1)C(=O)N1CCC[C@H](N1)C(=O)OCC(C)(C)C2 [Compound A379] | 
9 | > 10 | C=CC(=O)N1CC[C@H](C(=O)N(C)[C@H](C(=O)N[C@H]2C[C@H]3CN(CCCO3)c3ccc4c(c3)c(c(-c3cccnc3[C@H](C)OC)n4CC)CC(C)(C)COC(=O)[C@@H]3CCCN(N3)C2=O)C(C)C)C1 [Compound A405] | 
10 | > 10 | C=CC(=O)N1CC[C@H](C(=O)N(C)[C@H](C(=O)NC2C[C@H]3CN(CCCO3)c3ccc4c(c3)c(c(-c3cccnc3[C@H](C)OC)n4CC)CC(C)(C)COC(=O)[C@@H]3CCCN(N3)C2=O)C(C)C)C1 (some centres unmarked) [Compound A429] | 
11 | > 10 | C=CC(=O)N1CC(OCC(C(=O)N[C@H]2Cc3cc(cc(C(F)F)c3)-c3ccc4c(c3)c(c(-c3cccnc3[C@H](C)OC)n4CC)CC(C)(C)COC(=O)[C@@H]3CCCN(N3)C2=O)C(C)C)C1 (some centres unmarked) [Compound A450] | 
12 | 0.01 to 0.1 | CCn1c(-c2cccnc2[C@H](C)OC)c2c3cc(ccc31)-c1csc(n1)C[C@H](NC(=O)[C@H](C(C)C)N(C)C(=O)N1CC([C@H](C)CO)C1)C(=O)N1CCC[C@H](N1)C(=O)OCC(C)(C)C2 [Compound A478] | 
13 | 0.1 to 1 | CCn1c(-c2cccnc2[C@H](C)OC)c2c3cc(ccc31)-c1csc(n1)C[C@H](NC(=O)[C@H](C(C)C)N(C)C(=O)N1CC3(CC(N4CCOCC4)C3)C1)C(=O)N1CCC[C@H](N1)C(=O)OCC(C)(C)C2 [Compound A486] | 
14 | 0.01 to 0.1 | CCn1c(-c2cccnc2[C@H](C)OC)c2c3cc(ccc31)-c1csc(n1)[C@@H](O)[C@H](NC(=O)[C@H](C(C)C)N(C)C(=O)N1CC(N(C)C)C1)C(=O)N1CCC[C@H](N1)C(=O)OCC(C)(C)C2 [Compound A489] | 
15 | > 10 | C=CC(=O)N1CC[C@H](C(=O)N(C)[C@H](C(=O)N[C@H]2CCC(=O)N(C)Cc3ccc4c(c3)c(c(-c3cccnc3[C@H](C)OC)n4CC)CC(C)(C)COC(=O)[C@@H]3CCCN(N3)C2=O)C(C)C)C1 [Compound A500] | 
16 | 0.1 to 1 | C=CC(=O)N1CC[C@H](C(=O)N(C)[C@H](C(=O)N[C@H]2Cc3cccc(c3)-c3ccc4c(c3)c(c(-c3cc(C5=CCN(C)CC5)cnc3[C@H](C)OC)n4CC)CC(C)(C)COC(=O)[C@@H]3CCCN(N3)C2=O)C(C)C)C1 [Compound A514] | 

The remaining lines, values behind:

Row | SMILES | IC50 [1] [µM] | other results
17 | CCn1c(-c2ccccc2CN(C)C)c2c3cc(ccc31)-c1cc(O)cc(c1)C[C@H](NC(=O)[C@H](C(C)C)N(C)Cc1ccc(NC(=O)/C=C/CN(C)C)cn1)C(=O)N1CCC[C@H](N1)C(=O)OCC(C)(C)C2 [Compound A213] | > 10 | 
18 | CCn1c(-c2ccccc2CCOC)c2c3cc(ccc31)-c1cc(O)cc(c1)C[C@H](NC(=O)[C@H](C(C)C)N(C)C(=O)c1ccc(NC(=O)/C=C/CN(C)C)nc1)C(=O)N1CCC[C@H](N1)C(=O)OCC(C)(C)C2 [Compound A218] | > 10 | 
19 | CCn1c(-c2ccccc2CCOC)c2c3cc(ccc31)-c1cc(O)cc(c1)C[C@H](NC(=O)[C@H](C(C)C)N(C)C(=O)c1ccc(NC(=O)/C=C/CN(C)C)cn1)C(=O)N1CCC[C@H](N1)C(=O)OCC(C)(C)C2 [Compound A224] | > 10 | 
20 | C=CC(=O)N1CC[C@H](C(=O)Nc2ccccc2C(=O)N[C@H]2Cc3cc(O)cc(c3)-c3ccc4c(c3)c(c(-c3cnccc3COC)n4CC)CC(C)(C)COC(=O)[C@@H]3CCCN(N3)C2=O)C1 [Compound A229] | > 10 | 
21 | C=CC(=O)N1CC[C@H](C(=O)N(C)[C@H](C(=O)N(C)[C@H]2Cc3cc(O)cc(c3)-c3ccc4c(c3)c(c(-c3cccnc3COC)n4CC)CC(C)(C)COC(=O)[C@@H]3CCCN(N3)C2=O)C(C)C)C1 [Compound A230] | > 10 | 
22 | C=CC(=O)N1CC[C@H](C(=O)N(C)[C@H](C(=O)N[C@H]2Cc3cc(OC4O[C@H](CO)[C@@H](O)[C@H](O)[C@H]4O)cc(c3)-c3ccc4c(c3)c(c(-c3cccnc3COC)n4CC)CC(C)(C)COC(=O)[C@@H]3CCCN(N3)C2=O)C(C)C)C1 (some centres unmarked) [Compound A234] | > 10 | 
23 | C=CC(=O)N1CC[C@H](C(=O)N(C)[C@H](C(=O)N[C@H]2CN(C)C(=O)Cc3ccc4c(c3)c(c(-c3cccnc3COC)n4CC)CC(C)(C)COC(=O)[C@@H]3CCCN(N3)C2=O)C(C)C)C1 [Compound A239] | > 10 | 
24 | C=CC(=O)N1CC[C@H](C(=O)N(C)[C@H](C(=O)N[C@H]2C[C@H]3CN(CCO3)c3ccc4c(c3)c(c(-c3cccnc3COC)n4CC)CC(C)(C)COC(=O)[C@@H]3CCCN(N3)C2=O)C(C)C)C1 [Compound A240] | > 10 | 
25 | C=CC(=O)N1CC[C@H](C(=O)N(C)[C@H](C(=O)N[C@H]2Cc3cc(O)cc(c3)-c3ccc4nc(-c5cccnc5[C@H](C)OC)n(c4c3)CC(C)(C)COC(=O)[C@@H]3CCCN(N3)C2=O)C(C)C)C1 [Compound A242] | > 10 | 
26 | C=CC(=O)N1CC[C@H](C(=O)N(C)[C@H](C(=O)N[C@H]2Cc3cc(O)cc(c3)-c3ccc4nc(-c5cccnc5COC)c(n4c3)CC(C)(C)COC(=O)[C@@H]3CCCN(N3)C2=O)C(C)C)C1 [Compound A243] | > 10 | 
27 | CCn1c(-c2cccnc2[C@H](C)OC)c2c3cc(ccc31)-c1cc(O)cc(c1)C[C@H](NC(=O)[C@H](C(C)C)N(C)C(=O)[C@H]1CCN(C(=O)C#C[C@@H]3CCCN3C)C1)C(=O)N1CCC[C@H](N1)C(=O)OCC(C)(C)C2 [Compound A247] | < 0.01 | 
28 | C=CC(=O)N1CC[C@H](C(=O)N(C)[C@H](C(=O)N[C@H]2CC3=NN=C(S3)c3ccc4c(c3)c(c(-c3cccnc3[C@H](C)OC)n4CC)CC(C)(C)COC(=O)[C@@H]3CCCN(N3)C2=O)C(C)C)C1 [Compound A248] | > 10 | 
29 | C=CC(=O)Nc1ccc(C(=O)N(C)[C@H](C(=O)N[C@H]2Cc3cc(O)cc(c3)-c3ccc4c(c3)c(c(-c3cccnc3[C@H](C)OC)n4CC)CC(C)(C)COC(=O)[C@@H]3CCCN(N3)C2=O)C(C)C)cn1 [Compound A250] | < 0.01 | 
30 | CCn1c(-c2cccnc2[C@H](C)OC)c2c3cc(ccc31)-c1cc(O)cc(c1)C[C@H](NC(=O)C1CCCC1C(F)F)C(=O)N1CCC[C@H](N1)C(=O)OCC(C)(C)C2 (some centres unmarked) [Compound A254] | 0.1 to 1 | 
31 | C=CC(=O)N1CC[C@H](C(=O)N(C)[C@H](C(=O)N[C@@H]2C(=O)N3CCC[C@H](N3)C(=O)OCC(C)(C)Cc3c(-c4cncnc4)n(CC)c4ccc(cc34)-c3cccc(c3)[C@H]2O)C(C)C)C1 [Compound A272] | > 10 | 
32 | C=CC(=O)N1CC[C@H](C(=O)N(C)[C@H](C(=O)N[C@@H]2C(=O)N3CCC[C@H](N3)C(=O)OCC(C)(C)Cc3c(-c4cncnc4)n(CC)c4ccc(cc34)-c3cccc(c3)[C@H]2OC)C(C)C)C1 [Compound A273] | > 10 | 
33 | C=CC(=O)N1CC[C@H](C(=O)N(C)[C@H](C(=O)N[C@H]2Cc3ncc(n3C)-c3ccc4c(c3)c(c(-c3cccnc3[C@H](C)OC)n4CC)CC(C)(C)COC(=O)[C@@H]3CCCN(N3)C2=O)C(C)C)C1 [Compound A276] | > 10 | 
34 | CCn1c(-c2cccnc2[C@H](C)OC)c2c3cc(ccc31)-c1csc(n1)C[C@H](NC(=O)[C@H](C(C)C)N(C)C(=O)N1CC3CC(C1)N3C)C(=O)N1CCC[C@H](N1)C(=O)OCC(C)(C)C2 [Compound A284] |  | IC50 (Homo sapiens, NCI-H358, 120 h, read-out: H358 Cell Viability assay data (K-Ras G12C, IC50, uM), 5-day treatment): 0.1 to 1 µM
35 | C=CC(=O)Nc1ccc(C(=O)N(C)[C@H](C(=O)N[C@H]2Cc3cc(O)cc(c3)-c3ccc4c(c3)c(c(-c3cccnc3[C@H](C)OC)n4CC)CC(C)(C)COC(=O)[C@@H]3CCCN(N3)C2=O)C(C)C)cn1 [Compound A336] |  | IC50 (5-day treatment, read-out: H358 Cell Viability assay data (K-Ras G12C, IC50)): < 0.01 µM
